Laboratory results taken from PubChem BioAssay AID1963826 (Molecular Pharmacology Branch, DTP, NCI, 2024).

Tested on: 926638-142-R-J1-PDC complex spheroid viability
Test: Anticancer human tumor 926638-142-R-J1-PDC patient-derived endometrial carcinoma cell line growth inhibition [POLQ]
Details: for IC50: curve of first compound; for viability, T/C: stronger effect = lower value
In short: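 Patient-derived tumour cells were co-cultured with HUVEC and mesenchymal stem cells as multicellular spheroids at 37 °C. They were treated with POLQ inhibitors (novobiocin, ART-558, RP6685) alone or combined with other agents. Top concentrations were at or near clinical Cmax (otherwise 10 microM; SN-38 at 1 microM), decreasing in half-log steps.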

[1] = second compound 0.0316 µM, first compound 0.0316 µM
[2] = second compound 0.0316 µM, first compound 0.1 µM
[3] = second compound 0.0316 µM, first compound 0.316 µM
[4] = second compound 0.0316 µM, first compound 1 µM
[5] = second compound 0.0316 µM, first compound 3.16 µM
[6] = second compound 0.0316 µM, first compound 10 µM
[7] = second compound 0.1 µM, first compound 0.0316 µM
[8] = second compound 0.1 µM, first compound 0.1 µM
[9] = second compound 0.1 µM, first compound 0.316 µM
[10] = second compound 0.1 µM, first compound 1 µM
[11] = second compound 0.1 µM, first compound 3.16 µM
[12] = second compound 0.1 µM, first compound 10 µM
[13] = second compound 0.316 µM, first compound 0.0316 µM
[14] = second compound 0.316 µM, first compound 0.1 µM
[15] = second compound 0.316 µM, first compound 0.316 µM
[16] = second compound 0.316 µM, first compound 1 µM
[17] = second compound 0.316 µM, first compound 3.16 µM
[18] = second compound 0.316 µM, first compound 10 µM
[19] = second compound 1 µM, first compound 0.0316 µM
[20] = second compound 1 µM, first compound 0.1 µM
[21] = second compound 1 µM, first compound 0.316 µM
[22] = second compound 1 µM, first compound 1 µM
[23] = second compound 1 µM, first compound 3.16 µM
[24] = second compound 1 µM, first compound 10 µM
[25] = second compound 3.16 µM, first compound 0.0316 µM
[26] = second compound 3.16 µM, first compound 0.1 µM
[27] = second compound 3.16 µM, first compound 0.316 µM
[28] = second compound 3.16 µM, first compound 1 µM
[29] = second compound 3.16 µM, first compound 3.16 µM
[30] = second compound 3.16 µM, first compound 10 µM
[31] = second compound 10 µM, first compound 0.0316 µM
[32] = second compound 10 µM, first compound 0.1 µM
[33] = second compound 10 µM, first compound 0.316 µM
[34] = second compound 10 µM, first compound 1 µM
[35] = second compound 10 µM, first compound 3.16 µM
[36] = second compound 10 µM, first compound 10 µM
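Note: spheroids exposed to drugs for one week before readout.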
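Throughout, for viability, T/C: percent viability relative to DMSO vehicle control wells set as 100%.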

Question: For CC(C)n1c(=O)n(C)c2cnc3cc(F)c(-c4ccc(OCCCN5CCCCC5)nc4)cc3c21 + Cc1cccc(N(C)C(=O)C2C(O)CCN2c2nc(C)cc(C(F)(F)F)c2C#N)c1, which IC50 (second compound 0.0316 µM) is on record?
Answer: > 10 µM

Question: What about the IC50 (second compound 0.1 µM) of the same molecule?
Answer: > 10 µM

Question: What about the IC50 (second compound 0.316 µM) of the same molecule?
Answer: > 10 µM

Question: And the IC50 (second compound 1 µM)?
Answer: > 10 µM

Question: And the IC50 (second compound 3.16 µM)?
Answer: > 10 µM

Question: And the IC50 (second compound 10 µM)?
Answer: 9.83 µM

Question: What about the viability, T/C [1] of the same molecule?
Answer: 86.5%

Question: And the viability, T/C [2]?
Answer: 88.5%

Question: What about the viability, T/C [3] of the same molecule?
Answer: 87.6%

Question: And the viability, T/C [4]?
Answer: 88.9%

Question: And the viability, T/C [5]?
Answer: 94.1%

Question: And the viability, T/C [6]?
Answer: 62.1%

Question: What about the viability, T/C [7] of the same molecule?
Answer: 94.6%

Question: And the viability, T/C [8]?
Answer: 81.8%

Question: What about the viability, T/C [9] of the same molecule?
Answer: 103%

Question: What about the viability, T/C [10] of the same molecule?
Answer: 86.7%

Question: And the viability, T/C [11]?
Answer: 79.5%

Question: And the viability, T/C [12]?
Answer: 50.9%

Question: What about the viability, T/C [13] of the same molecule?
Answer: 104%

Question: And the viability, T/C [14]?
Answer: 123%

Question: What about the viability, T/C [15] of the same molecule?
Answer: 89.7%

Question: What about the viability, T/C [16] of the same molecule?
Answer: 102%

Question: And the viability, T/C [17]?
Answer: 93.7%

Question: And the viability, T/C [18]?
Answer: 52.3%

Question: And the viability, T/C [19]?
Answer: 92.8%

Question: What about the viability, T/C [20] of the same molecule?
Answer: 88.9%

Question: What about the viability, T/C [21] of the same molecule?
Answer: 78.5%

Question: And the viability, T/C [22]?
Answer: 102%

Question: What about the viability, T/C [23] of the same molecule?
Answer: 107%

Question: And the viability, T/C [24]?
Answer: 72.3%

Question: What about the viability, T/C [25] of the same molecule?
Answer: 89.5%

Question: And the viability, T/C [26]?
Answer: 95.8%

Question: What about the viability, T/C [27] of the same molecule?
Answer: 92%

Question: What about the viability, T/C [28] of the same molecule?
Answer: 104%

Question: What about the viability, T/C [29] of the same molecule?
Answer: 74%

Question: What about the viability, T/C [30] of the same molecule?
Answer: 65.2%

Question: And the viability, T/C [31]?
Answer: 103%

Question: And the viability, T/C [32]?
Answer: 89.2%

Question: What about the viability, T/C [33] of the same molecule?
Answer: 107%

Question: And the viability, T/C [34]?
Answer: 87%

Question: What about the viability, T/C [35] of the same molecule?
Answer: 76.1%

Question: And the viability, T/C [36]?
Answer: 49.1%

Question: What does the source list for CC1COCCN1c1cc(-c2ccnn2C)c2ccnc(-c3ccn[nH]3)c2n1 (centres undefined) + Cc1cccc(N(C)C(=O)C2C(O)CCN2c2nc(C)cc(C(F)(F)F)c2C#N)c1?
Answer: IC50 (second compound 0.0316 µM): 0.388 µM; IC50 (second compound 0.1 µM): 0.34 µM; IC50 (second compound 0.316 µM): 0.298 µM; IC50 (second compound 1 µM): 0.414 µM; IC50 (second compound 3.16 µM): 0.433 µM; IC50 (second compound 10 µM): 0.313 µM; viability, T/C [1]: 94.8%; viability, T/C [2]: 75.6%; viability, T/C [3]: 58%; viability, T/C [4]: 27.5%; viability, T/C [5]: 12.6%; viability, T/C [6]: 8.02%; viability, T/C [7]: 106%; viability, T/C [8]: 81.6%; viability, T/C [9]: 51.1%; viability, T/C [10]: 28%; viability, T/C [11]: 12.6%; viability, T/C [12]: 7.36%; viability, T/C [13]: 106%; viability, T/C [14]: 76.7%; viability, T/C [15]: 52.3%; viability, T/C [16]: 23.1%; viability, T/C [17]: 12.2%; viability, T/C [18]: 10.2%; viability, T/C [19]: 83.7%; viability, T/C [20]: 99.3%; viability, T/C [21]: 56.1%; viability, T/C [22]: 24.1%; viability, T/C [23]: 12.2%; viability, T/C [24]: 8.86%; viability, T/C [25]: 73.2%; viability, T/C [26]: 77.7%; viability, T/C [27]: 53.8%; viability, T/C [28]: 32.8%; viability, T/C [29]: 10.1%; viability, T/C [30]: 6.72%; viability, T/C [31]: 90.7%; viability, T/C [32]: 76.5%; viability, T/C [33]: 50.2%; viability, T/C [34]: 23.3%; viability, T/C [35]: 10.8%; viability, T/C [36]: 7.42%
